Assay results from patent publication US8952024B2, “Herbicidal pyrimidone derivatives” (E I du Pont de Nemours and Company, priority 2009, dated 2015).

Tests used:
Test in all cases: Test A pre-/postemergence plant response
Type in all cases: in vivo
[1] = test system: barnyardgrass (Echinochloa crus-galli); conditions: for Barnyardgrass plant response rating: visual injury, 0 to 100 scale (0 no effect, 100 complete control), approx. ten days
Description: (§1) Seeds of barnyardgrass (Echinochloa crus-galli), large crabgrass (Digitaria sanguinalis), giant foxtail (Setaria faberii), morningglory (Ipomoea spp.), pigweed (Amaranthus retroflexus), velvetleaf (Abutilon theophrasti), wheat (Triticum aestivum) and corn (Zea mays) were planted into a blend of loam soil and sand and treated preemergence with a directed soil spray using test chemicals formulated in a non-phytotoxic solvent mixture which included a surfactant. At the same time these species were also treated with postemergence applications of test compounds formulated in the same manner.
(§2) Plants ranged in height from two to ten cm and were in the one- to two-leaf stage for the postemergence treatment. Treated plants and untreated controls were maintained in a greenhouse for approximately ten days, after which time all treated plants were compared to untreated controls and visually evaluated for injury. Plant response ratings, summarized in Table A, are based on a 0 to 100 scale where 0 is no effect and 100 is complete control. A dash (-) response means no test result.

corn (Zea mays) = conditions: for Corn plant response rating: visual injury, 0 to 100 scale (0 no effect, 100 complete control), approx. ten days
Description: as §1, §2

[2] = test system: giant foxtail (Setaria faberii)
Description: as §1, §2

[3] = test system: large crabgrass (Digitaria sanguinalis); conditions: for Crabgrass, Large plant response rating: visual injury, 0 to 100 scale (0 no effect, 100 complete control), approx. ten days
Description: as §1, §2

[4] = test system: morningglory (Ipomoea spp.)
Description: as §1, §2

[5] = test system: pigweed (Amaranthus retroflexus)
Description: as §1, §2

[6] = test system: velvetleaf (Abutilon theophrasti)
Description: as §1, §2

[7] = test system: wheat (Triticum aestivum)
Description: as §1, §2

[8] = Postemergence, 125 g ai/ha, 0 to 100 scale where 0 is no effect and 100 is complete control
[9] = Preemergence, 125 g ai/ha, 0 to 100 scale, 0 = no effect, 100 = complete control
[10] = Preemergence, 500 g ai/ha, 0 to 100 scale, 0 = no effect, 100 = complete control
[11] = Postemergence, 500 g ai/ha, visual injury, 0 to 100 scale (0 no effect, 100 complete control), approx. ten days
[12] = Preemergence, 125 g ai/ha, 0 to 100 scale where 0 is no effect and 100 is complete control, approximately ten days
[13] = Postemergence, 125 g ai/ha, visual injury, 0 to 100 scale (0 no effect, 100 complete control), approx. ten days

Compound | Plant response rating, Barnyardgrass [1, 8] | Barnyardgrass plant response rating ([1]; Postemergence, 500 g ai/ha) | Plant response rating, Barnyardgrass [1, 9] | Plant response rating, Barnyardgrass [1, 10] | Plant response rating, Corn (corn (Zea mays); [8]) | Corn plant response rating (corn (Zea mays); Postemergence, 500 g ai/ha) | Plant response rating, Corn (corn (Zea mays); [10]) | Foxtail, Giant plant response rating [2, 11] | Plant response rating, Foxtail, Giant [2, 10] | Plant response rating, Crabgrass, Large [3, 8] | Crabgrass, Large plant response rating ([3]; Postemergence, 500 g ai/ha) | Plant response rating, Crabgrass, Large [3, 10] | Morningglory plant response rating [4, 11] | Plant response rating, Morningglory [4, 10] | Pigweed plant response rating [5, 11] | Plant response rating, Pigweed [5, 10] | Velvetleaf plant response rating [6, 11] | Plant response rating, Velvetleaf [6, 10] | Wheat plant response rating [7, 11] | Plant response rating, Wheat [7, 10] | other results
CCCn1c(-c2ccc3c(c2)OCCO3)ncc(C(=O)C2=C(O)C3CCC(C3)C2=O)c1=O (stereo not drawn) [Compound 241] | 90 | 90 | 10 | 90 | 20 | 50 | 20 | 90 | 70 | 50 | 70 | 90 | 100 | 30 | 80 | 50 | 100 | 60 | 60 | 40 | Plant response rating, Corn (corn (Zea mays); [9]): 0; Plant response rating, Foxtail, Giant [2, 8]: 80; Plant response rating, Foxtail, Giant [2, 9]: 10; Plant response rating, Crabgrass, Large [3, 9]: 20; Plant response rating, Morningglory [4, 8]: 100; Plant response rating, Morningglory [4, 9]: 0; Plant response rating, Pigweed [5, 8]: 70; Plant response rating, Pigweed [5, 9]: 20; Plant response rating, Velvetleaf [6, 8]: 100; Plant response rating, Velvetleaf [6, 9]: 20; Plant response rating, Wheat [7, 8]: 40; Plant response rating, Wheat [7, 9]: 0
CCCn1c(-c2ccc3ccccc3c2)ncc(C(=O)C2=C(O)C3CCC(C3)C2=O)c1=O (stereo not drawn) [Compound 242] | 50 | 90 | 0 | 0 | 0 | 20 | 0 | 80 | 0 | 20 | 60 | 10 | 100 | 0 | 30 | 0 | 90 | 0 | 30 | 0 | Plant response rating, Corn (corn (Zea mays); [9]): 0; Plant response rating, Foxtail, Giant [2, 8]: 50; Plant response rating, Foxtail, Giant [2, 9]: 0; Plant response rating, Crabgrass, Large [3, 9]: 0; Plant response rating, Morningglory [4, 8]: 40; Plant response rating, Morningglory [4, 9]: 0; Plant response rating, Pigweed [5, 8]: 20; Plant response rating, Pigweed [5, 9]: 0; Plant response rating, Velvetleaf [6, 8]: 50; Plant response rating, Velvetleaf [6, 9]: 0; Plant response rating, Wheat [7, 8]: 0; Plant response rating, Wheat [7, 9]: 0
O=C(C1=C(O)C2CCC(C2)C1=O)c1cnc(-c2ccccc2)n(C2CCCCCCCCCCC2)c1=O (stereo not drawn) [Compound 247] | 30 | 80 |  | 0 | 0 | 30 | 0 | 30 | 0 | 40 | 70 | 0 | 100 | 0 | 90 | 0 | 100 | 0 | 0 | 0 | Plant response rating, Barnyardgrass [1, 12]: 0; Plant response rating, Corn (corn (Zea mays); [12]): 0; Plant response rating, Foxtail, Giant [2, 13]: 0; Plant response rating, Foxtail, Giant [2, 12]: 0; Plant response rating, Crabgrass, Large [3, 12]: 0; Plant response rating, Morningglory [4, 13]: 100; Plant response rating, Morningglory [4, 12]: 0; Plant response rating, Pigweed [5, 13]: 70; Plant response rating, Pigweed [5, 12]: 0; Plant response rating, Velvetleaf [6, 13]: 100; Plant response rating, Velvetleaf [6, 12]: 0; Plant response rating, Wheat [7, 13]: 0; Plant response rating, Wheat [7, 12]: 0
